Experimental data published in patent publication US20070025920A1, “Stable Pharmaceutical Solution Formulations for Pressurized Metered Dose Inhalers” (priority 2004, published 2007).
Where two headings read alike, the source gives them in different places.

What was measured:
[1] = Stability of the TA 2005 + budesonide HFA 134a composition with phosphoric acid, 40° C. and 75% relative humidity; type: physicochemical; settings: TA 2005 1 μg + budesonide 200 μg/actuation, phosphoric acid 85% 0.0032 or 0.0064% w/w, 0.15% w/w water, three months
Description: Two compositions were tested containing TA 2005 and budesonide as active ingredients and two different concentrations of phosphoric acid.
Volume of the valve: 63 μl; strength: TA 2005 1 μg+budesonide 200 μg/actuation; no. of actuations: 120 (34 overfilling doses).
The two active ingredients in the compositions were stable after three months storage at 40° C. and 75% relative humidity, giving residual percent amounts of at least 95% TA 2005 and about 100% of Budesonide.

[2] = 3.5 μg/50 μl, cited from earlier work
[3] = Stability study of 1 μg/63 μl formulations with 0.1M hydrochloric acid, upright cans at 40° C. and 75% relative humidity; type: physicochemical; settings: 15 w/w ethanol, HFA 134a, three months
Description: Two aluminum canisters having the internal surface coated with Teflon and fitted with commercial valves having a 63 μl metering chamber were filled with the following formulations shown in Table 3. A stability study was carried out by storing the formulations in upright cans at 40° C. and 75% relative humidity.

[4] = Stability study of the 1 μg/63 μl formulation with 15.2 M phosphoric acid, upright and inverted cans at 40° C. and 75% relative humidity; type: physicochemical; settings: 15% w/w ethanol, HFA 134a, 15.2 M phosphoric acid 0.001 to 0.0027% w/w, six months
Description: The formulation of Table 4 (120 actuations/canister, overage of 30 actuations) was filled in aluminum canisters having the internal surface coated with Teflon and fitted with commercial valves having a 63 μl metering chamber. A stability study was carried out by storing the formulation in upright and inverted cans at 40° C. and 75% relative humidity.

[5] = 4 μg per actuation, HCl-stabilised HFA 134a/ethanol solution; stored upright at 5° C.; after nine months; mean of 2 cans; cited from earlier work

COc1ccc(C[C@@H](C)NC[C@H](O)c2ccc(O)c3[nH]c(=O)ccc23)cc1.Cl [TA 2005, 8-hydroxy-5-[(1R)-1-hydroxy-2-[[(1R)-2-(4-methoxyphenyl)-1-methylethyl]amino]ethyl]-2(1H)-quinolinone hydrochloride]
residual percent amount [1]: at least 95% | TA 2005 content, per cent nominal drug concentration ([2]; HFA 134a, 12% w/w ethanol, 1.0% w/w isopropyl myristate, 1.0 μl 0.08M HCl per can (apparent pH about 4.8), Initial): 100.0 per cent | TA 2005 content, per cent nominal drug concentration ([2]; HFA 134a, 12% w/w ethanol, 1.0% w/w isopropyl myristate, 1.4 μl 0.08M HCl per can (apparent pH about 3.2), Initial): 100.0 per cent | TA 2005 content, per cent nominal drug concentration ([2]; 1.0 μl 0.08M HCl per can, 50° C., 22 days upright): 98.3 per cent | TA 2005 content, per cent nominal drug concentration ([2]; 1.0 μl 0.08M HCl per can, 50° C., 83 days upright): 99.4 per cent | TA 2005 content, per cent nominal drug concentration ([2]; 1.4 μl 0.08M HCl per can, 50° C., 22 days upright): 98.2 per cent | TA 2005 content, per cent nominal drug concentration ([2]; 1.4 μl 0.08M HCl per can, 50° C., 83 days upright): 98.8 per cent | percent amount of TA 2005 ([3]; hydrochloric acid 0.1M 0.018 w/w): 73% | percent amount of TA 2005 ([3]; hydrochloric acid 0.1M 0.027 w/w): 77% | residual percent amount of TA 2005 [4]: up to 98% | TA 2005 assay [5]: higher than 95%
